Source: PMC9814792 (Communications Chemistry, 2022)

How the values were obtained:
albumin = target: T1, albumin (Bos taurus, UniProt P02769); test: Albumin binding in fetal calf serum by SEC-ICP-MS; type: in vitro ADME; settings: fetal calf serum 37 °C, 100 μM
T1 construct: tissue Sigma-Aldrich; host or cells: fetal calf serum
Method: Fetal calf serum was purchased from Sigma-Aldrich and buffered with 150 mM phosphate buffer (pH 7.4) to guarantee a stable pH. The platinum(IV) complexes were dissolved in 150 mM phosphate buffer (pH 7.4) to 1 mM and diluted 1:10 in serum to obtain a final concentration of 100 μM. The samples were then incubated in the autosampler at 37 °C for 24 h and analyzed at 0 h, 1 h, 4 h, and 24 h. Between each sample, a pure water blank was measured. For SEC-ICP-MS measurements, an Agilent 1260 Infinity system coupled to an Agilent 7800 ICP-MS equipped with a dynamic reaction cell was used. Oxygen (purity 5.5, Messer AustriaGmbH, Gumpoldskirchen, Austria) was used as reaction gas at 30% and 0.9 L/min flow.

[1] = tested on: HCT116 and HCT116/OxR cells; test: Cellular GSH content (GSH/GSSG-Glo); type: cell-based, human; settings: 24 h exposure, single agent
Method: GSH levels in HCT116 and HCT116/OxR cells (7.5 × 10^4 cells per well in 96-well plates, in triplicate), or in CT26 tumor tissues (25–50 mg/sample) were determined using the luminescence-based detection system GSH/GSSG-Glo^TM assay (Promega, Madison, WI) following the manufacturer’s recommendations. Quantifications are based on the comparison with a GSH standard curve delivered in the assay and normalized to the total protein content of the samples determined by the Micro BCA^TM protein assay kit (Thermo Scientific).

T1 sequence (P02769 25-607): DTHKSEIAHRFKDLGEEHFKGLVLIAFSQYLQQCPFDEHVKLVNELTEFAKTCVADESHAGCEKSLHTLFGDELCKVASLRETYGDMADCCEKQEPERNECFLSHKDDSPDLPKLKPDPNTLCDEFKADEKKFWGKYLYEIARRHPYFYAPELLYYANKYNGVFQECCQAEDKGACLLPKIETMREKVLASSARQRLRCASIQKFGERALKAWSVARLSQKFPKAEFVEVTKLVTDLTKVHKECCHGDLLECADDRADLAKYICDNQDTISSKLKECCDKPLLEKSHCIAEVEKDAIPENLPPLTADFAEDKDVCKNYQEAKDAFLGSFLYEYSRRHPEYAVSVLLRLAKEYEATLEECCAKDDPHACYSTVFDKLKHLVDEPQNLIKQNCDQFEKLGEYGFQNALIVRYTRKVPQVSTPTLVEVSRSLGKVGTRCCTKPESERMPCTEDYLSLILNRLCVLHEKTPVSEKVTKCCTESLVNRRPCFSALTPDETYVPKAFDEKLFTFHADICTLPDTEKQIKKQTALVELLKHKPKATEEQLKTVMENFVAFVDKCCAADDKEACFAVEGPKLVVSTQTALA

CCCCS(=N)(=O)CCC(NC(=O)[O][Pt]1([O]C(C)=O)[O]C(=O)C(=O)[O]1)C(=O)O.NC1CCCCC1N (mixture of isomers) [BSO-OxOAc, (OC-6-34)-Acetato(((1 S)-3-(butylsulfonimidoyl)-1-carboxypropyl)carbamato)((1 R,2 R)-1,2-cyclohexanediamino)oxalatoplatinum(IV)]
100%: free (low molecular weight fraction) (albumin; t 0 h) | free (low molecular weight fraction) (albumin; t 1 h) | free (low molecular weight fraction) (albumin; t 4 h) | free (low molecular weight fraction) (albumin; t 24 h)
moderately: impact on cellular GSH content [1]
0%: bound to albumin fraction (albumin; t 0 h) | bound to albumin fraction (albumin; t 1 h) | bound to albumin fraction (albumin; t 4 h) | bound to albumin fraction (albumin; t 24 h)
